System: HepG2 tumor
Experiment: Example 2: tumor volume, tumor weight and TGI in HepG2 tumor bearing humanized mice
Format: in vivo, Mus musculus
Details: Example 2, D30
Protocol: 1. Species: Mus musculus • Strain: Advanced immunodeficiency mouse. • (NOD.CgPrkdc^scid Il2rg) • Source: Trineo Biotechnology Co., LTD.
Each group contains six mice. The human hepatocellular carcinoma cell line HepG2 were subcutaneously inoculated to the advanced immune-deficiency mice. Total of 42 mice were included in this study.
2.2. […] The subcutaneous injection volume was […].
3.1. […] The injection was performed using insulin syringe with the dosage of 0.3 mg/kg or 1 mg/kg and the injection volume was 5 mL/kg. […] The reference item was administered for G1. The procedure followed the standards of sample administration. The starting day of test item administration was denoted as the first experimental day (DO).
3.2. […] The injection was performed using insulin syringe with the dosage of 20 mg/kg and injection volume of 10 mL/kg. […] The procedure followed the standards of sample administration.
The measurement was performed from the next day of the inoculation. The tumor volumes were measured and recorded twice a week (Mon., Thur.). Tumor volume was calculated by ellipsoid equation according to the records ((major axis×minor axis×minor axis)×(π/6)).
Tumor volumes were used to calculate tumor growth inhibition (TGI) rates according to the following formula: TGI (%)=[1−(Ti−T0)/(Ci−C0)]×100, where Ti and Ci indicate the mean tumor volume in the treatment groups and vehicle group at the end of the experiment (Day 30). Whereas, T0 and C0 indicate the mean tumor volumes in the treatment group and vehicle group at the beginning of the experiment (Day 0).
Mice were sacrificed by CO2 euthanasia at the end of the study duration, and the connective tissue around tumor was resected. The tumor samples were then weighed and cut equally into three sections if the tumor weight over 400 mg. The tumor tissue was prepared for the isolation of tumor-infiltrating lymphocytes (TILs). The rest of one section was fixed in 10% formaldehyde and embedded in paraffin; the other was stored at a temperature below −70° C.

For “anti-hPD-1: Anti-Human PD-1 antibody, Pembrolizumab, Merck & Co., Inc.”, the mean tumor volume (mean±SEM, anti-hPD-1 20 mg/kg IP alone (G4)) was 983.84±266.44 mm^3 and the “mean tumor volume compared with vehicle (in words)” value (vs vehicle (G1), OBI-3424 high-dose 1 mg/kg (G3), anti-hPD-1 20 mg/kg (G4), combinations G5-G7) was “No statistically significant difference”.
